Assay results taken from PubChem BioAssay AID2060500 (Molecular Pharmacology Branch, DTP, NCI, 2025).

System: 596521-263-R-J1-PDC complex spheroids, viability % of control
Assay: Anticancer human tumor 596521-263-R-J1-PDC patient-derived soft tissue sarcoma cell line growth inhibition [GQUAD]
Conditions: for IC50: curve of first compound; for viability, T/C: stronger effect = lower value
How it was run: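 Tumor cells were grown as complex spheroids with HUVEC endothelial cells and mesenchymal stem cells as stroma. G-quadruplex stabilizers were combined with targeted agents over half-log dilutions from near the clinical Cmax, or from 10 microM.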

[1] = second compound 0.0316 µM, first compound 0.0316 µM
[2] = second compound 0.0316 µM, first compound 0.1 µM
[3] = second compound 0.0316 µM, first compound 0.316 µM
[4] = second compound 0.0316 µM, first compound 1 µM
[5] = second compound 0.0316 µM, first compound 3.16 µM
[6] = second compound 0.0316 µM, first compound 10 µM
[7] = second compound 0.1 µM, first compound 0.0316 µM
[8] = second compound 0.1 µM, first compound 0.1 µM
[9] = second compound 0.1 µM, first compound 0.316 µM
[10] = second compound 0.1 µM, first compound 1 µM
[11] = second compound 0.1 µM, first compound 3.16 µM
[12] = second compound 0.1 µM, first compound 10 µM
[13] = second compound 0.316 µM, first compound 0.0316 µM
[14] = second compound 0.316 µM, first compound 0.1 µM
[15] = second compound 0.316 µM, first compound 0.316 µM
[16] = second compound 0.316 µM, first compound 1 µM
[17] = second compound 0.316 µM, first compound 3.16 µM
[18] = second compound 0.316 µM, first compound 10 µM
[19] = second compound 1 µM, first compound 0.0316 µM
[20] = second compound 1 µM, first compound 0.1 µM
[21] = second compound 1 µM, first compound 0.316 µM
[22] = second compound 1 µM, first compound 1 µM
[23] = second compound 1 µM, first compound 3.16 µM
[24] = second compound 1 µM, first compound 10 µM
[25] = second compound 3.16 µM, first compound 0.0316 µM
[26] = second compound 3.16 µM, first compound 0.1 µM
[27] = second compound 3.16 µM, first compound 0.316 µM
[28] = second compound 3.16 µM, first compound 1 µM
[29] = second compound 3.16 µM, first compound 3.16 µM
[30] = second compound 3.16 µM, first compound 10 µM
[31] = second compound 10 µM, first compound 0.0316 µM
[32] = second compound 10 µM, first compound 0.1 µM
[33] = second compound 10 µM, first compound 0.316 µM
[34] = second compound 10 µM, first compound 1 µM
[35] = second compound 10 µM, first compound 3.16 µM
[36] = second compound 10 µM, first compound 10 µM
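Also: spheroids exposed to drugs for 7 days before viability reading.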
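For viability, T/C in this document: 100% = DMSO vehicle control viability.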

Structure (SMILES): C#Cc1c(F)ccc2cc(O)cc(-c3ncc4c(N5CC6CCC(C5)N6)nc(OCC56CCCN5CC(F)C6)nc4c3F)c12 (stereo not given) + CN(C)c1ccc(Nc2c3ccc(NC(=O)CCN4CCCC4)cc3nc3cc(NC(=O)CCN4CCCC4)ccc23)cc1
- IC50 (second compound 0.0316 µM): > 10 µM
- IC50 (second compound 0.1 µM): > 10 µM
- IC50 (second compound 0.316 µM): > 10 µM
- IC50 (second compound 1 µM): > 10 µM
- IC50 (second compound 3.16 µM): > 10 µM
- IC50 (second compound 10 µM): 4.15 µM
- viability, T/C [1]: 105%
- viability, T/C [2]: 95.1%
- viability, T/C [3]: 98.7%
- viability, T/C [4]: 115%
- viability, T/C [5]: 106%
- viability, T/C [6]: 99.2%
- viability, T/C [7]: 95.5%
- viability, T/C [8]: 96.1%
- viability, T/C [9]: 107%
- viability, T/C [10]: 108%
- viability, T/C [11]: 112%
- viability, T/C [12]: 92.3%
- viability, T/C [13]: 103%
- viability, T/C [14]: 106%
- viability, T/C [15]: 98.5%
- viability, T/C [16]: 97.3%
- viability, T/C [17]: 104%
- viability, T/C [18]: 83.1%
- viability, T/C [19]: 100%
- viability, T/C [20]: 111%
- viability, T/C [21]: 92.5%
- viability, T/C [22]: 88.6%
- viability, T/C [23]: 104%
- viability, T/C [24]: 96.8%
- viability, T/C [25]: 87.4%
- viability, T/C [26]: 87.2%
- viability, T/C [27]: 98.7%
- viability, T/C [28]: 90.5%
- viability, T/C [29]: 86.6%
- viability, T/C [30]: 78.3%
- viability, T/C [31]: 64.6%
- viability, T/C [32]: 66%
- viability, T/C [33]: 70.7%
- viability, T/C [34]: 64.2%
- viability, T/C [35]: 54.2%
- viability, T/C [36]: 36.8%

Structure (SMILES): CCCS(=O)(=O)Nc1ccc(F)c(C(=O)c2c[nH]c3ncc(-c4ccc(Cl)cc4)cc23)c1F + CN(C)c1ccc(Nc2c3ccc(NC(=O)CCN4CCCC4)cc3nc3cc(NC(=O)CCN4CCCC4)ccc23)cc1
- IC50 (second compound 0.0316 µM): 5.18 µM
- IC50 (second compound 0.1 µM): 5.51 µM
- IC50 (second compound 0.316 µM): 5.6 µM
- IC50 (second compound 1 µM): 6.65 µM
- IC50 (second compound 3.16 µM): 5.01 µM
- IC50 (second compound 10 µM): 1.82 µM
- viability, T/C [1]: 94.7%
- viability, T/C [2]: 83.9%
- viability, T/C [3]: 95.3%
- viability, T/C [4]: 82.1%
- viability, T/C [5]: 65.8%
- viability, T/C [6]: 29.4%
- viability, T/C [7]: 101%
- viability, T/C [8]: 88.9%
- viability, T/C [9]: 104%
- viability, T/C [10]: 83%
- viability, T/C [11]: 69.8%
- viability, T/C [12]: 29.9%
- viability, T/C [13]: 94.4%
- viability, T/C [14]: 93.8%
- viability, T/C [15]: 89.4%
- viability, T/C [16]: 80%
- viability, T/C [17]: 65.9%
- viability, T/C [18]: 34.4%
- viability, T/C [19]: 98.5%
- viability, T/C [20]: 97.7%
- viability, T/C [21]: 85.8%
- viability, T/C [22]: 84.1%
- viability, T/C [23]: 71%
- viability, T/C [24]: 39.1%
- viability, T/C [25]: 93.2%
- viability, T/C [26]: 91.7%
- viability, T/C [27]: 94%
- viability, T/C [28]: 84.3%
- viability, T/C [29]: 56.9%
- viability, T/C [30]: 39.8%
- viability, T/C [31]: 62.9%
- viability, T/C [32]: 60.5%
- viability, T/C [33]: 56.9%
- viability, T/C [34]: 57.3%
- viability, T/C [35]: 44.5%
- viability, T/C [36]: 30.1%

Structure (SMILES): COc1cccc2c1C(=O)c1c(O)c3c(c(O)c1C2=O)CC(O)(C(=O)CO)CC3OC1CC(N)C(O)C(C)O1 (stereo not given) + CN(C)c1ccc(Nc2c3ccc(NC(=O)CCN4CCCC4)cc3nc3cc(NC(=O)CCN4CCCC4)ccc23)cc1
- IC50 (second compound 0.0316 µM): 0.687 µM
- IC50 (second compound 0.1 µM): 0.91 µM
- IC50 (second compound 0.316 µM): 0.722 µM
- IC50 (second compound 1 µM): 0.787 µM
- IC50 (second compound 3.16 µM): 1.01 µM
- IC50 (second compound 10 µM): 0.408 µM
- viability, T/C [1]: 96.9%
- viability, T/C [2]: 75.1%
- viability, T/C [3]: 55.8%
- viability, T/C [4]: 54.9%
- viability, T/C [5]: 29.7%
- viability, T/C [6]: 3.98%
- viability, T/C [7]: 94.2%
- viability, T/C [8]: 73.8%
- viability, T/C [9]: 70.3%
- viability, T/C [10]: 47.7%
- viability, T/C [11]: 29.4%
- viability, T/C [12]: 6.1%
- viability, T/C [13]: 108%
- viability, T/C [14]: 80.6%
- viability, T/C [15]: 53.1%
- viability, T/C [16]: 51.5%
- viability, T/C [17]: 29.6%
- viability, T/C [18]: 5.16%
- viability, T/C [19]: 104%
- viability, T/C [20]: 76.7%
- viability, T/C [21]: 58.5%
- viability, T/C [22]: 55.8%
- viability, T/C [23]: 31%
- viability, T/C [24]: 5.6%
- viability, T/C [25]: 89.5%
- viability, T/C [26]: 84.5%
- viability, T/C [27]: 55.6%
- viability, T/C [28]: 56.6%
- viability, T/C [29]: 30.3%
- viability, T/C [30]: 6.32%
- viability, T/C [31]: 67.3%
- viability, T/C [32]: 59.1%
- viability, T/C [33]: 47.7%
- viability, T/C [34]: 42.9%
- viability, T/C [35]: 30.8%
- viability, T/C [36]: 5.21%

Structure (SMILES): Nc1ccn(C2OC(CO)C(O)C2(F)F)c(=O)n1 (stereo not given) + CN(C)c1ccc(Nc2c3ccc(NC(=O)CCN4CCCC4)cc3nc3cc(NC(=O)CCN4CCCC4)ccc23)cc1
- IC50 (second compound 0.0316 µM): < 0.0316 µM
- IC50 (second compound 0.1 µM): < 0.0316 µM
- IC50 (second compound 0.316 µM): 0.121 µM
- IC50 (second compound 1 µM): < 0.0316 µM
- IC50 (second compound 3.16 µM): < 0.0316 µM
- IC50 (second compound 10 µM): < 0.0316 µM
- viability, T/C [1]: 48.3%
- viability, T/C [2]: 39.2%
- viability, T/C [3]: 40.5%
- viability, T/C [4]: 37.3%
- viability, T/C [5]: 44.5%
- viability, T/C [6]: 40.2%
- viability, T/C [7]: 53.9%
- viability, T/C [8]: 42.2%
- viability, T/C [9]: 40%
- viability, T/C [10]: 39.1%
- viability, T/C [11]: 44.1%
- viability, T/C [12]: 38.1%
- viability, T/C [13]: 53.6%
- viability, T/C [14]: 46.6%
- viability, T/C [15]: 48.7%
- viability, T/C [16]: 49.8%
- viability, T/C [17]: 40.1%
- viability, T/C [18]: 39.4%
- viability, T/C [19]: 46.7%
- viability, T/C [20]: 41.5%
- viability, T/C [21]: 39.3%
- viability, T/C [22]: 42.2%
- viability, T/C [23]: 39%
- viability, T/C [24]: 40.5%
- viability, T/C [25]: 44.7%
- viability, T/C [26]: 44.2%
- viability, T/C [27]: 40.6%
- viability, T/C [28]: 42.5%
- viability, T/C [29]: 40.5%
- viability, T/C [30]: 35.6%
- viability, T/C [31]: 42.4%
- viability, T/C [32]: 37.4%
- viability, T/C [33]: 33.4%
- viability, T/C [34]: 35.2%
- viability, T/C [35]: 38%
- viability, T/C [36]: 38.2%

Structure (SMILES): O=c1[nH]cc(F)c(=O)[nH]1 + CN(C)c1ccc(Nc2c3ccc(NC(=O)CCN4CCCC4)cc3nc3cc(NC(=O)CCN4CCCC4)ccc23)cc1
- IC50 (second compound 0.0316 µM): > 10 µM
- IC50 (second compound 0.1 µM): > 10 µM
- IC50 (second compound 0.316 µM): > 10 µM
- IC50 (second compound 1 µM): > 10 µM
- IC50 (second compound 3.16 µM): > 10 µM
- IC50 (second compound 10 µM): > 10 µM
- viability, T/C [1]: 111%
- viability, T/C [2]: 118%
- viability, T/C [3]: 94.2%
- viability, T/C [4]: 94.4%
- viability, T/C [5]: 109%
- viability, T/C [6]: 91.1%
- viability, T/C [7]: 102%
- viability, T/C [8]: 117%
- viability, T/C [9]: 105%
- viability, T/C [10]: 97%
- viability, T/C [11]: 110%
- viability, T/C [12]: 89.7%
- viability, T/C [13]: 107%
- viability, T/C [14]: 92.1%
- viability, T/C [15]: 95.4%
- viability, T/C [16]: 93.9%
- viability, T/C [17]: 95.4%
- viability, T/C [18]: 96.4%
- viability, T/C [19]: 98.9%
- viability, T/C [20]: 101%
- viability, T/C [21]: 102%
- viability, T/C [22]: 111%
- viability, T/C [23]: 105%
- viability, T/C [24]: 98.2%
- viability, T/C [25]: 89.4%
- viability, T/C [26]: 89.6%
- viability, T/C [27]: 103%
- viability, T/C [28]: 85.6%
- viability, T/C [29]: 110%
- viability, T/C [30]: 80%
- viability, T/C [31]: 66.5%
- viability, T/C [32]: 67.4%
- viability, T/C [33]: 63.1%
- viability, T/C [34]: 75.2%
- viability, T/C [35]: 68.4%
- viability, T/C [36]: 64.1%
